Measurements published in US20250326785A1, “SODIUM SALT AND ETHANOLAMINE SALT OF 23-HYDROXYTORMENTIC ACID” (HUYABIO International, LLC, priority 2024, published 2025).

What was measured:
[1] = Stability study at 25° C./60% RH, 40° C./75% RH and 60° C. (XRPD, HPLC purity, impurity tracking); conditions: for XRPD: * = crystalline salt; for HPLC: based on free acid
Excerpt: Stability of HBI-3808 Sodium Salt Pattern 2 was studied over 13 weeks.
Table 2F presents impurity tracking results from a 13-week stability study of HBI-3808 sodium salt of Pattern 2. […]

[2] = Dynamic vapor sorption (DVS) analysis; type: physicochemical
Procedure: GC analysis indicated residual solvent contents of 2847 ppm methanol; and 27 ppm TBME. […] No residual methanol or TBME was detected due to signal over-lap. […] TG-DSC analysis indicated two weight losses. The first weight loss of 2.3 wt. % was observed between 20-170° C. […] In the DSC thermogram, three endothermic events were observed (FIG. 17I). […] FT-IR (FIG. 17J) and Raman spectra (FIG. 17K) were recorded for reference. […] XRPD pattern of the ethanolamine salt was retained post-DVS (FIG. 17N). […] However, at the end of the experiment the solids on the microscope slide had discolored (FIG. 17O).

[3] = Salt disproportionation study (slurry in water, XRPD of solids, pH of mother liquor); type: physicochemical
Procedure: The pH of the filtered mother liquor was 9.77.
Salt disproportionation studies of ethanolamine salt. […] The pH of the filtered mother liquor was 8.65.
Method: 40 mg of sodium salt of HBI-3808 having a XRPD of Pattern 2, was weighed into a 2 mL push cap vial and a stirrer bar added. 0.2 mL of water was added to the vial and the experiment was stirred for ca. 24 h at 25° C. After 24 h the slurry was filtered by centrifuge filtration and the recovered solids were analyzed by XRPD. The pH of the filtered mother liquor was measured.

[4] = Hydration study in methanol/water aw 0.1, 0.5 and 0.9; type: physicochemical
Excerpt: Hydration studies of ethanolamine salt.

[5] = Varying humidity (VH)-XRPD; type: physicochemical; conditions: 0-90% RH
Procedure: During the sorption phase, sodium salt Pattern 2 was observed between 40-60% RH. […] A mixture of sodium salt Pattern 2 and 5 was also observed at 80% RH. […] During the second desorption, from 90% RH to 40% RH, sodium salt Pattern 5 was maintained.
VH-XRPD analysis was carried out between 40-0% RH (FIG. 5L).

## C[C@@H]1CC[C@]2(C(=O)O)CC[C@]3(C)C(=CC[C@@H]4[C@@]5(C)C[C@@H](O)[C@H](O)[C@@](C)(CO)[C@@H]5CC[C@]43C)[C@@H]2[C@]1(C)O.NCCO [ethanolamine salt of HBI-3808, ETHANOLAMINE SALT OF 23-HYDROXYTORMENTIC ACID]
[1]; 40° C./75% RH, 1 week
  RRT 0.801 impurity: 0.10 % area
  RRT 0.970 impurity: 0.14 % area
  RRT 1.000 (HBI-3808): 97.28 % area
  RRT 1.025 (Isomer of HBI-3808): 2.48 % area
  Total Impurities: 2.72 % area
[1]; 40° C./75% RH, 2 weeks
  RRT 0.970 impurity: 0.12 % area
  RRT 1.000 (HBI-3808): 97.26 % area
  RRT 1.025 (Isomer of HBI-3808): 2.40 % area
  RRT 1.935 impurity: 0.22 % area
  Total Impurities: 2.74 % area
[1]; 40° C./75% RH, 4 weeks
  RRT 0.970 impurity: 0.11 % area
  RRT 1.025 (Isomer of HBI-3808): 2.41 % area
  Total Impurities: 2.52 % area
[1]; 40° C./75% RH, 8 weeks
  RRT 0.970 impurity: 0.21 % area
  RRT 1.000 (HBI-3808): 96.88 % area
  RRT 1.025 (Isomer of HBI-3808): 2.51 % area
  RRT 1.767 impurity: 0.40 % area
  Total Impurities: 3.12 % area
[1]; 40° C./75% RH, 13 weeks
  RRT 1.000 (HBI-3808): 97.41 % area
  RRT 1.025 (Isomer of HBI-3808): 2.40 % area
  RRT 1.935 impurity: 0.20 % area
  Total Impurities: 2.59 % area
[1]; 40° C./75% RH, T = 0
  RRT 1.000 (HBI-3808): 97.82 % area
  RRT 1.025 (Isomer of HBI-3808): 2.18 % area
  Total Impurities: 2.18 % area
[1]; 60° C. (closed vial), 13 Weeks
  HPLC/ % area: 97.4 % area
  XRPD: 1*
  HPLC: 97.4 % area
[1]; 60° C. (closed vial), 1 Week
  XRPD: 1*
  HPLC: 97.5 % area
[1]; 60° C. (closed vial), 2 Weeks
  XRPD: 1*
  HPLC: 97.3 % area
[1]; 60° C. (closed vial), 4 Weeks
  XRPD: 1*
  HPLC: 97.5 % area
[1]; 60° C. (closed vial), 8 Weeks
  XRPD: 1*
  HPLC: 97.0 % area
[1]; 60° C., 1 week
  RRT 0.801 impurity: 0.12 % area
  RRT 1.000 (HBI-3808): 97.46 % area
  RRT 1.025 (Isomer of HBI-3808): 2.43 % area
  Total Impurities: 2.54 % area
[1]; 60° C., 2 weeks
  RRT 0.970 impurity: 0.12 % area
  RRT 1.000 (HBI-3808): 97.27 % area
  RRT 1.025 (Isomer of HBI-3808): 2.41 % area
  RRT 1.935 impurity: 0.20 % area
  Total Impurities: 2.73 % area
[1]; 60° C., 4 weeks
  RRT 0.970 impurity: 0.11 % area
  RRT 1.000 (HBI-3808): 97.49 % area
  RRT 1.025 (Isomer of HBI-3808): 2.40 % area
  Total Impurities: 2.51 % area
[1]; 60° C., 8 weeks
  RRT 0.970 impurity: 0.12 % area
  RRT 1.000 (HBI-3808): 97.04 % area
  RRT 1.025 (Isomer of HBI-3808): 2.49 % area
  RRT 1.767 impurity: 0.35 % area
  Total Impurities: 2.96 % area
[1]; 60° C., 13 weeks
  RRT 1.000 (HBI-3808): 97.41 % area
  RRT 1.025 (Isomer of HBI-3808): 2.41 % area
  RRT 1.935 impurity: 0.18 % area
  Total Impurities: 2.59 % area
[1]; 60° C., T = 0
  RRT 1.000 (HBI-3808): 97.82 % area
  RRT 1.025 (Isomer of HBI-3808): 2.18 % area
  Total Impurities: 2.18 % area
[1]; input material of the stability study (baseline)
  input purity by HPLC: 97.5 % area
[2]
  XRPD of recovered material post-DVS: retained
[2]; at 80% RH/25° C. (Pattern 2: second DVS cycle)
  water (mass) uptake: 3.0 wt. %
[2]; from water uptake at 80% RH, 25° C.
  hygroscopicity: slightly hygroscopic
[3]
  pH of the filtered mother liquor: 8.65
[3]; ca. 24 h at 25° C.
  XRPD of recovered solids: no salt disproportionation had occurred
[4]
  XRPD of solids recovered at the end of the experiment: consistent with ethanolamine salt
[5]
  XRPD pattern / form stability over relative humidity: no changes in XRPD Pattern
